Drawing on PubChem BioAssay AID618 (Sanford-Burnham Center for Chemical Genomics, 2007), this text covers EC50 for 111 compounds.

Broadly, the EC50 is the concentration needed to bring the measured effect to its halfway point.

The subject of the assay is MT1-MMP promoter luciferase reporter cells, luminescence. The assay is described as follows: inhibitors of MT1-MMP promoter transcription, cell-based, luciferase reporter, luminescence (AID 618).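 Also: actives suppress MT1-MMP promoter-driven transcription so potencies describe inhibitors.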

Active and inactive are the calls of the source. No rule for the calls is given here.

`CC(C)(C)c1ccc(C(=O)Nc2ccc(CC(=O)O)cc2)o1`: the 50% effective concentration (EC50) is 0.23 µM.
On to `Cc1cc(C)c(C)c(S(=O)(=O)Nc2ccccc2C(=O)NCCCn2ccnc2)c1C`, for which the EC50 is 1.82 µM.
`COc1nc(C)ccc1-c1noc(-c2ccco2)n1`: the EC50 was 10.9 µM.
As to `Oc1ccc(Nc2nc(N3CCCC3)c3ccccc3n2)cc1`, the EC50 was 26.5 µM.
As to `Cc1cc(C(=O)CSc2nnc(-c3cccs3)o2)c(C)n1-c1ccccc1`, the EC50 was 7.72 µM.
In the case of `Cc1ccc(CNc2nc3ccccc3s2)s1`, the EC50 was 1.67 µM.
Regarding `COC(=O)c1nn(-c2ccc(-c3ccccc3)cc2)cc1O`, the EC50 is 1.48 µM.
Then `COc1ccc(-n2ncc3c(NC(C)C)ncnc32)cc1`, with 5.36 µM; and `c1ccc(-c2cnc(-c3ccccc3)nc2)cc1`, with 3.74 µM.
In the case of `CC(C)(C)c1ccc(-c2noc(CCC(N)=O)n2)cc1`, the EC50 was 0.13 µM.
Turning to `Nc1ccc(C(=O)Nc2nc3ccccc3s2)cc1`, the EC50 was 3.47 µM.
As for `CCCC(=O)Nc1ccc(-c2nc3cc(C)ccc3o2)cc1`, the figure is 12 µM; as for `Cc1ccc2nc(-c3cccc(N)c3)[nH]c2c1`, 2.8 µM.
As to `Cc1cnc(NC(=O)C2COc3ccccc3O2)s1` (stereo unspecified), the EC50 was 0.61 µM.
In the case of `COc1ccc(-c2cn3nc4c(nc3n2)CCCC4)cc1`, the EC50 was 0.59 µM.
Turning to `Cc1nn2cc(-c3ccccc3)nc2s1`, the EC50 is 12.3 µM.
For `Clc1ccccc1OCc1nc(-c2ccccn2)no1`, the 50% effective concentration (EC50) was 6.65 µM.
As for `O=C(c1c(Cl)nc2sccn12)N1CCN(c2cccc(Cl)c2)CC1`, the EC50 is 48.6 µM.
With `O=C(CCCOc1ccccc1)N1CCCCC1`, the EC50 was 6.96 µM.
Turning to `COc1cccc(C(=O)/C=C/Nc2cccc(O)c2)c1`, the EC50 is 0.18 µM.
As for `CCOc1ccc(-c2nnc(-c3ccco3)o2)cc1`, the figure is 1.42 µM.
As for `COCCn1c(C)cc(C(=O)CSc2nnc3ccccn23)c1C`, the figure is 3.63 µM.
As for `O=C(NCc1cccs1)c1nc2c(nnn2Cc2ccccc2Cl)c(=O)[nH]1`, the figure is > 50 µM (inactive).
As for `Cc1cc(C(=O)COC(=O)c2n[nH]c3ccccc23)c(C)n1C`, the EC50 is 7.21 µM.
As for `COc1cccc(-c2nc(-c3ccccn3)no2)c1`, the EC50 was 0.66 µM.
As for `CC(C)c1ccc2oc(-c3ccc(N)cc3)nc2c1`, the figure is 1.66 µM.
Take `CCOc1ccc(C(=O)NCCc2ccccc2)cc1`: the EC50 is 2.56 µM.
With `O=S(=O)(c1ccc(Cl)cc1)c1snnc1-c1ccccc1`, the EC50 was 13.2 µM.
Turning to `Cc1cccc(-n2ncc3c(N4CCCC4)ncnc32)c1`, the EC50 is 7.6 µM.
As for `COc1ccc(C(=O)Nc2nnc(-c3ccco3)s2)cc1`, the EC50 is 1.73 µM.
With `Brc1ccccc1-c1nc(-c2ccccc2)no1`, the EC50 was 6.92 µM.
`CCCCCCOc1ccc(CN2CCN(CCO)CC2)cc1`: the EC50 was 12.1 µM.
With `C=CCn1c(C)cc(C(=O)CSc2nc3ccccc3[nH]2)c1C`, the EC50 is 2.64 µM.
`COc1ccc(-n2ncc3c(NCC(C)C)ncnc32)cc1`: the EC50 was 6.31 µM.
As for `O=C(Nc1nccs1)c1cc2c(s1)CCCCC2`, the EC50 is 0.55 µM.
Then `Cc1ccc(O)c(/C=N/NC(=O)C2=NNC(c3ccccc3)(c3ccccc3)C2)c1`, with 19 µM; and `O=C1C(Cl)=C(N2CCCCC2)C(=O)C(Cl)=C1c1cnc(N2CCCCC2)s1`, with 4.53 µM.
With `Cc1nc2cc(-c3cccc(F)c3)nn2c(C)c1CCC(=O)NC(C)CCc1ccco1` (stereo unspecified), the EC50 is 1.12 µM.
Consider `O=C(CSc1nnc(-c2csc3c2CCCC3)o1)Nc1ccccc1`, for which the EC50 was 4.27 µM.
Regarding `Cc1cc(C)c(OCC(=O)Nc2cccc(O)c2)cc1C`, the EC50 was 26.6 µM.
Regarding `CCOC(=O)C1CCCCN1C(=O)CCc1c(C)nc2cc(-c3ccccc3)nn2c1C` (stereo unspecified), the EC50 is 1.15 µM.
Turning to `Cc1ccccc1C(=O)N/N=C/c1ccc([N+](=O)[O-])s1`, the EC50 was 25.5 µM.
As to `COc1cc(SC)ccc1C(=O)Nc1ccc2c(c1)OCCO2`, the concentration for a half-maximal effect (EC50) was 13.2 µM.
Then `O=C(c1cccc(COc2ccc(Cl)cc2Cl)c1)N1CCN(c2ccccn2)CC1`, with 12.6 µM; and `O=C(O)c1cccc(C(=O)Nc2cccc(NC(=O)C3CCCO3)c2)c1` (stereo unspecified), with 10.1 µM.
Consider `Cn1c(-c2ccccc2)cnc1SCC(=O)N1CCCCC1`, for which the EC50 is 2.88 µM.
Regarding `CCC/C(O)=C1\C(=O)CC(C)(C)CC1=Nc1ccc(OC)cc1OC`, the EC50 was 23.6 µM.
As for `CCOc1ccc(NC(=O)c2cnsn2)cc1`, the figure is 8.78 µM.
As for `O=C(Nc1ccc(N2CCCC2)c(Cl)c1)c1ccco1`, the figure is 2.68 µM; as for `O=C(NC1=NCCS1)c1cc2ccccc2o1`, 6.52 µM; as for `CC(=O)Nc1ccc(OC(=O)N2CCCCC2)cc1`, > 50 µM (inactive).
`Cc1csc(NC(=O)C2COc3ccccc3O2)n1` (stereo unspecified): the EC50 is 1.64 µM.
Take `Cc1ccc(C(=O)Nc2nc3c(s2)CCCC3)o1`: the EC50 is 5.98 µM.
As for `Oc1cccc(-c2nc3ccccc3s2)c1`, the figure is 2.99 µM; as for `O=S1(=O)Nc2c(ccc3cccnc23)-c2ccccc21`, 24.6 µM; as for `Cc1ccc(-c2nc(-c3ccccn3)no2)cc1`, below 0.098 µM.
In the case of `CC(C)C(=O)NC(c1ccco1)c1ccc2cccnc2c1O` (stereo unspecified), the EC50 was 27.6 µM.
Then `Cc1ccc(-c2nc(-c3ccccc3)no2)cc1`, with 2.87 µM; and `Cc1ccc(SCc2cn3c(C)csc3n2)cc1`, with 5.82 µM; and `Cc1ccc2nc(NC(=O)c3ccco3)sc2c1`, with 1 µM.
Consider `Cc1nc(Nc2nc3ccccc3o2)nc2c1CCC2`, for which the EC50 is 3.09 µM.
As to `Cc1ccsc1/C=C1\CCc2ccccc2C1=O`, the concentration for a half-maximal effect (EC50) was 3.09 µM.
For the compound `COc1ccc(C(=O)Nn2c(SCC(=O)NCc3ccccc3)nc3ccccc3c2=O)cc1`, the EC50 was 1.29 µM.
Turning to `COc1ccc(NC(=O)/C(Cl)=C(/Cl)S(=O)(=O)Cc2ccc(C)cc2)cn1`, the EC50 is 14.5 µM.
Then `CC1=NC(=O)C(N=Nc2cccc(C(=O)O)c2)N1c1ccccc1` (stereo unspecified), with 1.64 µM; and `CC(=O)Nc1ccc(SCC(=O)c2cc(C)n(Cc3cccs3)c2C)cc1`, with 1.22 µM; and `Cc1ccc(-c2nc3cc(N)ccc3o2)c(C)c1`, with 2.68 µM.
Then `COc1cccc(Cn2c(NCc3cccnc3)nc3c2c(=O)n(C)c(=O)n3C)c1`, with 0.25 µM.
On to `Cc1c(NC(=O)c2coc(=O)c(Br)c2)c(=O)n(-c2ccccc2)n1C`, for which the EC50 was 13.1 µM.
Then `COc1ccc(S(=O)(=O)N2CCN(C(=O)CCC3CCCC3)CC2)cc1`, with > 50 µM (inactive).
For the compound `CCOc1ccc(-c2cc(CCCC(=O)NCCCOC)no2)cc1`, the EC50 is 8.32 µM.
Take `O=C(/C=C\Nc1ccccn1)c1ccc(Cl)cc1`: the EC50 is 1.18 µM.
On to `c1ccc(-c2ccc(-c3nc(-c4ccncc4)no3)cc2)cc1`, for which the EC50 was 9.02 µM.
On to `O=C(COc1ccc(CO)cc1Cl)Nc1ccc(F)cc1`, for which the EC50 was 3.02 µM.
As to `CC(C)c1ccc(-c2nnn(CCC(=O)O)n2)cc1`, the EC50 is 1.04 µM.
Take `CCOC(=O)CCS(=O)(=O)c1nc(-c2ccccc2)cc(C(F)(F)F)n1`: the concentration for a half-maximal effect (EC50) was 15.7 µM.
With `N#C/C(=C\c1ccc(N2CCOCC2)o1)c1nc2ccccc2[nH]1`, the 50% effective concentration (EC50) was 4.32 µM.
Regarding `COc1ccc(C(=O)/C=C/Nc2ccccn2)cc1`, the EC50 was 0.19 µM.
On to `Cc1ccc(C(=O)Nc2cnc3ccccc3c2)cc1`, for which the EC50 was 0.2 µM.
`Cc1nc2ccc(-c3nc4cc(N)ccc4o3)cc2[nH]1`: the EC50 was 3.71 µM.
For the compound `Cc1ccc(C(=O)/C=C2\NCC(C)NC2=O)cc1` (stereo unspecified), the EC50 is 3.53 µM.
`O=C(CCCc1ccccc1)c1ccc2c(c1)OCCO2`: the EC50 was 0.28 µM.
In the case of `Cc1ccc(NC(=O)c2ccc3c(c2)OCCO3)cc1`, the EC50 is 1.71 µM.
As to `CCCCOc1ccc(C(=O)C(CN2CCOCC2)c2ccccc2)cc1` (stereo unspecified), the 50% effective concentration (EC50) was 13 µM.
For the compound `CCCN1C=CC(=C2C(=O)c3ccccc3C2=O)C=C1`, the EC50 is below 0.098 µM.
Consider `Cc1ccc(C(=O)Nc2cccc(C(=O)O)c2)cc1S(=O)(=O)N1CCCCC1`, for which the EC50 is 7.25 µM.
Take `Fc1ccccc1OCCSc1nnnn1-c1ccccc1`: the concentration giving a half-maximal response (EC50) was 12.7 µM.
Consider `CC(C)C(=O)Nc1ccc(NC(=O)c2ccccn2)cn1`, for which the EC50 is 6.27 µM.
Then `COc1ccc(-c2nsc3c(N4CCCCC4)ncnc23)cc1`, with 0.27 µM.
`CC1CCc2nc(NC(=O)C3CCCO3)sc2C1` (stereo unspecified): the EC50 was 12.4 µM.
As for `CC(C)(C)c1ccc(OCC(O)CSc2ncn[nH]2)cc1` (stereo unspecified), the figure is 16.9 µM.
With `CN1/C(=C/C(=O)c2nc(S(C)(=O)=O)ncc2Cl)C(C)(C)c2ccccc21`, the concentration giving a half-maximal response (EC50) was 16.1 µM.
Consider `Cc1ccc(-n2nc3ccc(N)cc3n2)cc1`, for which the EC50 was 13.6 µM.
Then `O=C(O)CCSc1nc2ccccc2s1`, with 15.4 µM; and `Cc1cc(C)c2c(N)c(C(=O)Nc3nccs3)sc2n1`, with 1.32 µM.
Then `CCN=C1NN=C(c2ccc(C)cc2)CS1`, with 1.98 µM; and `COc1cccc(-c2nc3cc(C)ccc3o2)c1`, with 4.41 µM.
For the compound `CC(=O)N(Cc1ccc(F)cc1)C1=C(NCCc2ccccc2)C(=O)c2ccccc2C1=O`, the EC50 was 12.2 µM.
As for `CCCOc1ccc(-c2nnc(-c3cccs3)o2)cc1`, the figure is 4.37 µM; as for `CCc1nnc(NC(=O)c2ccc(OC)cc2OC)s1`, 6.08 µM; as for `CN(C)c1ccc(N/C=C/C(=O)c2ccco2)cc1`, 4.42 µM.
As to `NC(=O)c1c(NC(=O)c2cc3ccccc3o2)sc2c1CCC2`, the EC50 was 6.54 µM.
`O=C(NC1=NC2CCCCC2N1)c1ccccc1` (stereo unspecified): the EC50 was 12.9 µM.
In the case of `O=C(c1ccc(Cl)cc1)N1CCCCC(Sc2nnc(-c3ccc4c(c3)OCO4)o2)C1=O` (stereo unspecified), the EC50 was 0.14 µM.
`Oc1c(CN2CCCCC2)cc(COCc2ccccc2)c2cccnc12`: the 50% effective concentration (EC50) was 6.94 µM.
Take `Nc1ccc(-c2nc3ccc(N)cc3o2)cc1`: the EC50 was 14 µM.
For the compound `CCCCN(C)C(=O)c1cc2cc3ccc(OC)cc3nc2s1`, the EC50 was 3.61 µM.
`COc1ccc(C2=Nc3ccccc3OC2)cc1`: the EC50 was 38.1 µM.
For `Cc1c(C(=O)NCC2CCCO2)oc2ccc3c(c12)C(=O)CC(C)(C)O3` (stereo unspecified), the EC50 is 12.5 µM.
As for `Cc1ccccc1NC(=O)c1cnc2ccccn2c1=O`, the figure is 2.13 µM; as for `Cc1cc(C)n(-c2nc3ccccc3nc2N2CCC(C)CC2)n1`, > 50 µM (inactive).
